Assay results: patent US8703792B2, “C-1 analogs of pancratistatin and 7-deoxypancratistatin and processes for their preparation” (Brock University, priority 2008, dated 2014)
Converted amounts (≈) assume the structure as drawn. “Also recorded” adds a separate entry of the source.

Assays:
[1] = test system: human pancreatic adenocarcinoma cancer cell line BxPC-3; test: MTT assay, pancreas BxPC-3; assay type: cell-based; conditions: 48 hrs, read-out: Inhibitory Activities: IC50, pancreas BxPC-3
Experimental: (§1) Human non-small cell lung cancer line NCI-H460 (ATCC # HTB-177) and human pancreatic adenocarcinoma cancer cell line BxPC-3 (ATCC # CRL-1687) were cultured in RPMI-1640 medium supplemented with 10% fetal bovine serum (FBS) (Gibco, Carlsbad, Calif.), 100 mg/L penicillin G and 100 mg/L streptomycin and (Cellgro, Manassas, Va.). Human prostate carcinoma cells DU-145 (ATCC # HTB-81) were cultured in Dulbecco's modified Eagle Medium (Cellgro) supplemented with 10% FBS, 100 mg/L penicillin G and 100 mg/L streptomycin. Human mammary carcinoma cells MCF-7 (ATCC # HTB-22) were cultured using Dulbecco's modified Eagle Medium supplemented with 10% FBS, 100 mg/L penicillin G, 100 mg/L streptomycin, 1.0 mM Glutamax and 1.0 mM sodium pyruvate, (Gibco).
(§2) In addition, the BxPC-3, […], DU-145 and MCF-7 lines were assessed by seeding 4×10^3 cells per well into microplates. The cells were grown for 24 hrs before treatment at concentrations ranging from 0.01 to 10 μM and incubated for 48 hrs. MTT reagent (5 mg/mL, MP Biomedical, Solon, Ohio) was added to each well and incubated further for 2 hrs. The resulting formazan crystals were dissolved in DMSO and the OD was determined at a wavelength of 490 nm. The experiments were repeated at least twice for each compound per cell line. Cells treated with 0.1% DMSO were used as a control.

[2] = test system: Human mammary carcinoma cells MCF-7; test: MTT assay, breast MCF-7; assay type: cell-based; conditions: MCF7, 48 hrs, read-out: Inhibitory Activities: IC50, breast MCF-7
Experimental: as §1, §2

[3] = test system: Human non-small cell lung cancer line NCI-H460; test: MTT assay, lung-NSC NCI-H460; assay type: cell-based; conditions: 48 hrs, read-out: Inhibitory Activities: IC50, lung-NSC NCl-H460
Experimental: as §1, §2

[4] = test system: Human prostate carcinoma cells DU-145; test: MTT assay, prostate DU-145; assay type: cell-based; conditions: 48 hrs, read-out: Inhibitory Activities: IC50, prostate DU-145
Experimental: as §1, §2

[5] = test system: B-cell leukemia (Jurkat) cell line; test: MTT assay, leukemia Jurkat; assay type: cell-based; conditions: Homo sapiens, read-out: Inhibitory Activities: IC50, leukemia Jurkat
Experimental: (§3) The Human neuroblastoma (SH-SY5Y) and B-cell leukemia (Jurkat) cell lines were purchased from ATCC (Manassas, Va.). Cells were maintained and grown at 37° C., 95% humidity and 5% CO2. Jurkat cells were grown with RPMI-1640 media (Sigma-Aldrich, Oakville, ON, Canada) supplemented with 10% fetal bovine serum (FBS) and 10 mg/ml Gentamycin (Gibco BRL, Mississauga, ON, Canada). SH-SY5Y cells were grown with Dulbecco's Modified Eagles Medium (DMEM) HAM F12 (Sigma-Aldrich), supplemented with 2 mM L-Glutamine, 10 mg/ml Gentamycin, and 10% FBS. Normal Human Fibroblasts (NHFs) obtained from Coriell Institute for Medical Research (New Jersey, USA) were cultured in Earle's Minimum Essential Medium (MEME) (Sigma Chemical Company, Mississauga, Ontario, Canada) completed with 15% fetal bovine serum, 2 mM L-Glutamine, 10 mg/ml Gentamycin, 1.5 g/l sodium bicarbonate, 1% vitamins, and essential (2%) and non-essential amino acids (1%) (Gibco BRL, VWR, Mississauga, ON, Canada).
(§4) To evaluate the cytotoxic effects of the C-1 derivatives of 7-deoxypancratistatin, mitochondrial dehydrogenase activities were measured. Jurkat and SH-SY5Y cells were grown and treated for 24, 48, and 72 hrs. Cells were treated with concentrations ranging from 0.25 to 10 μM of each derivative dissolved in DMSO Similarly, ncPBMCs and NHFs were treated to assess the effects of the C-1 derivatives on non-cancerous cells.

[6] = test system: Human neuroblastoma (SH-SY5Y) cell line; test: MTT assay, neuroblastoma SH-SY5Y; assay type: cell-based; conditions: read-out: Inhibitory Activities: IC50, neuroblastoma Shsy5y
Experimental: as §3, §4

[7] = test system: Jurkat cells; test: Apoptosis induction (Hoechst staining, Annexin-V binding) in Jurkat cells; assay type: cell-based, human; conditions: for Apoptotic morphology: 72 hours treatment, Hoechst staining and Annexin-V binding; for EC50: Homo sapiens, 72 hrs exposure, Hoechst staining, read-out: effective dose at which 50% of cells were apoptotic (ED50)
Experimental: as §3
(§5) Nuclear morphology was visualized using a final concentration of 10 μM of Hoechst 33342 dye (Molecular Probes, Eugene, Oreg., USA). Phosphatidyl serine flipping, (an apoptotic biochemical marker) was visualized with Annexin-V-FITC binding assay as per manufacturer's protocol (Molecular Probes, Eugene Oreg., USA). […] Apoptotic cells were expressed as a percentage of the total number of cells counted. Standard error was calculated from at least 3 separate experiments.

[8] = test system: SH-SY5Y cells; test: Apoptosis induction (Hoechst staining, Annexin-V binding) in SH-SY5Y cells; assay type: cell-based, human; conditions: for Apoptotic morphology: 72 hours treatment, Hoechst staining and Annexin-V binding; for EC50: Homo sapiens, 72 hrs exposure, Hoechst staining, read-out: effective dose at which 50% of cells were apoptotic (ED50)
Experimental: as §3, §5

[9] = test system: leukemia P388; test: Cancer cell line growth inhibition, leukemia P388; assay type: cell-based, murine; conditions: Mus musculus, read-out: Inhibitory Activities: IC50, leukemia P388
[10] = test system: CNS SF-268; test: Cancer cell line growth inhibition, CNS SF-268; assay type: cell-based; conditions: Homo sapiens, read-out: Inhibitory Activities: IC50, CNS SF-268
[11] = test system: colon KM20L2; test: Cancer cell line growth inhibition, colon KM20L2; assay type: cell-based; conditions: Homo sapiens, KM-20L2; read-out: Inhibitory Activities: IC50, colon KM20L2
[12] = test system: normal human fibroblasts (NHFs); test: Apoptosis induction (Hoechst staining) in normal human fibroblasts; assay type: cell-based
Experimental: as §3
To evaluate the cytotoxic effects of the C-1 derivatives of 7-deoxypancratistatin, mitochondrial dehydrogenase activities were measured. […]
Nuclear morphology was visualized using a final concentration of 10 μM of Hoechst 33342 dye (Molecular Probes, Eugene, Oreg., USA). […] Apoptotic cells were expressed as a percentage of the total number of cells counted. Standard error was calculated from at least 3 separate experiments.

[13] = test system: non-cancerous peripheral blood mononuclear cells (ncPBMC); test: Apoptosis induction (Hoechst staining) in non-cancerous peripheral blood mononuclear cells; assay type: cell-based, human; conditions: peripheral blood mononuclear cells from healthy volunteers
From the text: Peripheral blood was obtained from healthy non-smoking volunteers aged 25-50 years upon written and informed consent (University of Windsor REB #04-147). Whole blood samples were collected in BD Vacutainer™ Cell Preparation Tube and mononuclear cells were separated by density gradient centrifugation. The isolated cells were maintained in RPMI 1640 media supplemented and maintained as was the Jurkat culture.
as §4, §5

Molecule `O=C1N[C@H]2[C@H](O)[C@H](O)[C@@H](O)[C@H](CO)[C@@H]2c2cc3c(cc21)OCO3` [I(d), (1S,2S,3R,4S,4aR,11bR)-2,3,4-trihydroxy-1-(hydroxymethyl)-1,2,3,4,4a, 5-hexahydro-[1,3]dioxolo[4,5-j]phenanthridin-6(11bH)-one] has an IC50 [1] of 0.19 µg/mL (≈ 0.588 µM), an IC50 [2] of 0.65 µg/mL (≈ 2.01 µM) and an IC50 [3] of 0.09 µg/mL (≈ 0.278 µM). For the same molecule, the IC50 [4] was 0.26 µg/mL (≈ 0.804 µM), the IC50 [5] was 1.61 µg/mL (≈ 5 µM) and the IC50 [6] was 1.61 µg/mL (≈ 5 µM). The Apoptotic morphology [7] was “Apoptotic morphology was observed”, the EC50 [7] was 1000 nM and the Apoptotic morphology [8] was “Apoptotic morphology was observed”. The EC50 [8] was 10000 nM and the melting point was over 200 °C.

`COC(=O)[C@H]1[C@H](O)[C@@H](O)[C@@H](O)[C@@H]2NC(=O)c3cc4c(cc3[C@H]21)OCO4` showed a melting point of over 200 °C.

`O=C1N[C@H]2[C@H](O)[C@H](O)[C@@H](O)[C@H](O)[C@@H]2c2cc3c(c(O)c21)OCO3` [Compound 1, pancratistatin] gave an IC50 [9] of 0.039 µg/mL (≈ 0.12 µM), an IC50 [1] of 0.028 µg/mL (≈ 0.0861 µM) and an IC50 [2] of 0.032 µg/mL (≈ 0.0984 µM). It also gave an IC50 [10] of 0.017 µg/mL (≈ 0.0523 µM), an IC50 [3] of 0.048 µg/mL (≈ 0.148 µM) and an IC50 [11] of 0.062 µg/mL (≈ 0.191 µM). The IC50 [4] was 0.016 µg/mL (≈ 0.0492 µM), the IC50 [5] was 0.163 µg/mL (≈ 0.501 µM) and the IC50 [6] was 0.163 µg/mL (≈ 0.501 µM).

With `O=C1N[C@H]2[C@H](O)[C@H](O)[C@@H](O)[C@H](O)[C@@H]2c2cc3c(cc21)OCO3` [Compound 4, 7-deoxypancratistatin] the IC50 [9] was 0.44 µg/mL (≈ 1.42 µM), the IC50 [3] was 0.29 µg/mL (≈ 0.938 µM) and the IC50 [11] was 0.22 µg/mL (≈ 0.711 µM).

For `CC(=O)OC[C@H]1[C@H](O)[C@@H](O)[C@@H](O)[C@@H]2NC(=O)c3cc4c(cc3[C@@H]12)OCO4` [I(c), ((1S,2S,3R,4S,4aR,11bR)-2,3,4-trihydroxy-6-oxo-1,2,3,4,4a,5,6,11b-octahydro-[1,3]dioxolo[4,5-j]phenanthridin-1-yl)methyl acetate], the IC50 [1] was 0.11 µg/mL, the IC50 [2] was 0.29 µg/mL and the IC50 [3] was 0.11 µg/mL. The IC50 [4] was 0.37 µg/mL, the IC50 [5] was 0.183 µg/mL and the IC50 [6] was 0.183 µg/mL. The Apoptotic morphology [7] was “Apoptotic morphology was observed”, the EC50 [7] was 500 nM and the Apoptotic morphology [8] was “Apoptotic morphology was observed”. For the same molecule, the EC50 [8] was 500 nM, the “induction of apoptosis in non-cancerous cells” value [12] was “did not induce apoptosis; also recorded: does not induce apoptosis” and the “induction of apoptosis in non-cancerous cells” value [13] was “did not induce apoptosis; also recorded: does not induce apoptosis”. For the same molecule, the melting point was over 200 °C.
